Reference: article PMC7795425, “Synthesis and Biological Activity of Brassinosteroid Analogues with a Nitrogen-Containing Side Chain” (International Journal of Molecular Sciences, 2020)
“Also recorded” adds a separate entry of the source.

Assays:
[1] = system: Arabidopsis thaliana L. (Columbia ecotype, Col-0) seedlings; assay: Arabidopsis root sensitivity bioassay; assay type: in vivo; details: for root length, mean: 7-day-old seedlings; for elongation of roots (growth-promoting activity) compared to the control: low concentrations (0.1 and 1 nM); for inhibitory effect on Arabidopsis root growth: tested 0.1 to 10 nM, selected derivatives also 100 nM
Procedure: Several bioassays such as the first bean internode, root growth and rice lamina inclination have been developed to evaluate the growth-promoting activity of BR derivatives. In this work, the activity of new BR analogues was evaluated using the Arabidopsis root sensitivity test because of its simplicity and high sensitivity for BRs.. The characteristic effect of exogenously applied BRs on light-grown Arabidopsis is dose-dependent—BRs in higher concentrations cause inhibition of root growth; vice versa, low concentrations are stimulating. The results obtained for 24-epiBL, which was used as a positive control, and the BR derivatives are shown in Figure 2, Figure 3 and Figure S21. […] A similar trend was shown for dimethylammonium hydrochloride 22a and morpholinium hydrochloride 22e with a long side chain. For numerical values of the average, SD and p-value, see Table S2.
The biological activity of the new BRs derivatives was tested by an Arabidopsis sensitivity bioassay which was performed according to [28]. Briefly, seedlings of Arabidopsis thaliana L. (Columbia ecotype, Col-0) were stratified for 2 days at 4 °C and germinated on vertical half-strength Murashige and Skoog (1% w/v sucrose) agar at 22 °C in a 16 h/8 h light–dark cycle. The plates contained concentrations of 24-epiBL (as positive control) and BR derivatives ranging from 0.1 to 10 nM, respectively 100 nM (for selected derivatives only). After 7 days, roots were straightened on solid media plates and scanned with an Epson high-resolution scanner. The entire root length was measured with ImageJ (http://rsbweb.nih.gov/ij/). For each treatment, more than 15 seedlings were analyzed in two biological repeats, and p-values were calculated with the two-tailed Student t-test using Excel software.
(§1) Figure 2 Effect of selected brassinosteroid derivatives on the inhibition of Arabidopsis root length. Seven-day-old Arabidopsis thaliana seedlings (Columbia ecotype, Col-0) were treated with DMSO as control/24epiBL/BR short side chain derivatives; (A)—amides, (B)—amines, (C)—ammonium hydrochlorides. For each treatment, more than 15 seedlings were analyzed in two biological repeats. Error bars represent SD. Asterisks represent significant changes (t-test); * represents p-value < 0.05, in comparison to control.
as §1, with “Figure 3” for “Figure 2”, “control/24epiBL/BR long” for “control/24epiBL/BR short”, “(A)—amides, (B)—ammonium” for “(A)—amides, (B)—amines, (C)—ammonium”
Table S2: Data for figure 2, 3, and S21. P value <0.05(t-test), comparison to control.
control (mean ± SD) 16.3 ± 1.21
*only selected compounds were tested
mean(mm) SD t-test mean (mm) SD t-test mean (mm) SD t-test mean (mm) SD t-test
(1 picture or pasted object on this page, not shown here)

[2] = Calcein AM cytotoxicity assay, CEM; assay type: cell-based; details: human, CEM T-lymphoblastic leukemia cells, IC50 > 50 µM means inactive, read-out: Cytotoxic activity IC50
Procedure: (§2) The effect of the prepared BRs derivatives on the viability (in Calcein AM assays) of BJ human fibroblasts (as an example of a “normal” cell line) and human cancer cell lines of various histopathological origins, including: T-lymphoblastic leukemia CEM, breast carcinoma MCF7 and cervical carcinoma cell line HeLa, was also studied. Cells of all these lines were exposed to six 3-fold dilutions of each drug for 72 h prior to determination of cell survival. The IC50 (concentration leading to 50% inhibition of viability) values obtained from the Calcein AM cytotoxicity assay were calculated. […] All tested BR nitrogen-containing derivatives had no detectable activity, even when tested in concentrations of up to 50 µM.
(§3) The screening cell lines: T-lymphoblastic leukemia CEM; breast carcinoma MCF7 (estrogen-sensitive); cervical carcinoma cell line HeLa; and human foreskin fibroblasts BJ, were obtained from the American Type Culture Collection (Manassas, VA, USA). Cells were cultured in DMEM (Dulbecco’s Modified Eagle Medium, Sigma, St. Louis, MO, USA). Media used were supplemented with 10% fetal bovine serum, 2mM L-glutamine and 1% penicillin–streptomycin. The cell lines were maintained under standard cell culture conditions at 37 °C and 5% CO2 in a humid environment.
(§4) Cells were subcultured twice or three times a week using the standard trypsinization procedure. Cytotoxicity in cancer cell lines after 72 h was determined as described earlier. Control cultures were treated with DMSO alone, and the final concentration of DMSO in the mixture never exceeded 0.6%. Six serial 3-fold dilutions of the test substances were added at time zero in 20 μL aliquots to the microtiter plate wells and the highest final concentration in the wells was 50 μM.
(§5) Table S3: Cytotoxic activities, IC50 (µM/L)a, of compounds in three tumor and one normal fibroblast
(§6) Compound CEM MCF7 HeLa BJ
(§7) a The lowest concentration that kills 50% of cells.
(§8) b Increase of cell proliferation.

[3] = Calcein AM cytotoxicity assay, MCF7; assay type: cell-based; details: human, MCF7 breast carcinoma cells (estrogen-sensitive), MCF7, 72 h, IC50 > 50 µM means inactive, read-out: Cytotoxic activity IC50
Procedure: as §2, §3, §4, §5, §6, §7, §8

[4] = Calcein AM cytotoxicity assay, HeLa; assay type: cell-based; details: human, HeLa cervical carcinoma cells, IC50 > 50 µM means inactive, read-out: Cytotoxic activity IC50
Procedure: as §2, §3, §4, §5, §6, §7, §8

[5] = Calcein AM cytotoxicity assay, BJ; assay type: cell-based; details: human, BJ foreskin fibroblasts (normal cell line), IC50 > 50 µM means inactive, read-out: Cytotoxic activity IC50
Procedure: as §2, §3, §4, §5, §6, §7, §8

rice leaf lamina = system: rice leaf lamina; parameters: method as in PMID 11674612; details: all doses studied; cited from earlier work
[6] = system: T-lymphoblastic leukemia CEM; parameters: method as in PMID 17869317; details: CEM cells; positive control; cited from earlier work
[7] = 100 nM (only selected compounds), control 14.61 ± 0.85

Molecule	root length, mean ([1]; 0.1 nM, control 16.3 ± 1.21) [mm]	root length, mean ([1]; 1 nM, control 16.3 ± 1.21) [mm]	root length, mean ([1]; 10 nM, control 16.3 ± 1.21) [mm]	IC50 at 72 h [2] [µM]	IC50 at 72 h [3] [µM]	IC50 at 72 h [4] [µM]	IC50 at 72 h [5] [µM]	melting point	biological activity in rice lamina inclination (rice leaf lamina)	IC50 [6] [µM]	elongation of roots (growth-promoting activity) compared to the control [1]	root length, mean [1, 7] [mm]	inhibitory effect on Arabidopsis root growth [1]
C[C@H](CN(C)C)[C@H]1CC[C@H]2[C@@H]3CC(=O)[C@H]4C[C@H](O)[C@H](O)C[C@]4(C)[C@H]3CC[C@]12C [15a, (20S)-20-(N,N-dimethylaminomethyl)-2α,3α-dihydroxy-5α-pregnane-6-one]	14.83	14.29	14.34	> 50	> 50	> 50	> 50	219 to 221 °C	–	–	–	–	–
C[C@H](CN1CCCC1)[C@H]1CC[C@H]2[C@@H]3CC(=O)[C@H]4C[C@H](O)[C@H](O)C[C@]4(C)[C@H]3CC[C@]12C [15c, (20S)-20-(pyrrolidin-1-ylmethyl)-2α,3α-dihydroxy-5α-pregnane-6-one]	16.78	14.37	17.21	> 50	> 50	> 50	> 50	> 240 °C (dec.)	–	–	–	–	–
25-azabrassinolide	–	–	–	–	–	–	–	–	completely inactive; also recorded: no biological activity	–	–	–	–
CCC(C(C)C)C(O)C(O)C(C)C1CCC2C3CC(=O)C4CC(O)C(O)CC4(C)C3CCC12C (stereo not drawn) [28-Homocastasterone]	–	–	–	–	–	–	–	–	–	13	–	–	–
C[C@H]([C@@H](O)[C@@H](O)CN1CCOCC1)[C@H]1CC[C@H]2[C@@H]3CC(=O)[C@H]4C[C@H](O)[C@H](O)C[C@]4(C)[C@H]3CC[C@]12C.Cl [22e, 4-((20S,22R,23S)-2α,3α,22,23-tetrahydroxy-6-oxo-5α-cholan-24-yl)morpholinium chloride]	17.93	17.27	16.95	> 50	> 50	> 50	> 50	> 270 °C (dec.)	–	–	interesting growth-promoting activity	–	–
CCN(CC)C[C@@H](C)[C@H]1CC[C@H]2[C@@H]3CC(=O)[C@H]4C[C@H](O)[C@H](O)C[C@]4(C)[C@H]3CC[C@]12C [15b, (20S)-20-(N,N-diethylaminomethyl)-2α,3α-dihydroxy-5α-pregnane-6-one]	14.93	16.13	14.67	> 50	> 50	> 50	> 50	> 190 °C (dec.)	–	–	–	13.903	–
C[C@H](C(=O)N(C)C)[C@H]1CC[C@H]2[C@@H]3CC(=O)[C@H]4C[C@H](O)[C@H](O)C[C@]4(C)[C@H]3CC[C@]12C [8a, N,N-dimethyl-(20S)-2α,3α-dihydroxy-6-oxo-5α-pregnane-20-carboxamide]	16.12	18.41	16.46	> 50	> 50	> 50	> 50	> 230 °C (dec.)	–	–	slight elongation of roots; also recorded: interesting growth-promoting activity	13.329	weak inhibition up to the highest tested concentration of 100 nM
C[C@H]([C@@H](O)[C@H](O)C(=O)N1CCCC1)[C@H]1CC[C@H]2[C@@H]3CC(=O)[C@H]4C[C@H](O)[C@H](O)C[C@]4(C)[C@H]3CC[C@]12C [20c, 1-((20S,22R,23S)-2α,3α,22,23-tetrahydroxy-6-oxo-5α-cholan-24-oyl)pyrrolidine]	15.97	15.81	15.15	> 50	> 50	> 50	> 50	> 200 °C (dec.)	–	–	–	14.873	weak inhibitory effect
C[C@H](C(=O)N1CCOCC1)[C@H]1CC[C@H]2[C@@H]3CC(=O)[C@H]4C[C@H](O)[C@H](O)C[C@]4(C)[C@H]3CC[C@]12C [8e, 4-((20S)-2α,3α-dihydroxy-6-oxo-5α-pregnane-20-carbonyl)morpholine]	17.77	17.44	15.16	> 50	> 50	> 50	> 50	> 270 °C (dec.)	–	–	slight elongation of roots; also recorded: interesting growth-promoting activity	–	–
